In paper PMC6792352, “Limited Chemical Structural Diversity Found to Modulate Thyroid Hormone Receptor in the Tox21 Chemical Library” (Environmental Health Perspectives, 2019):
Counter-ions that a name gives are not always drawn.

Experiment: in vitro
Details: rat, gh3-tre-luc cells, AC50 (uM) modified / 1000

`CC(=O)N[C@@H](CCC(=O)O)C(=O)O` [N-Acetyl-L-glutamic acid] and `O=C(O)/C=C/C(=O)O` [Fumaric acid] cannot be ordered by CC50 at 24 h: greater than 50 µM for the first, greater than 100 µM for the second.

First: C=CCN1C[C@H](C(=O)N(CCCN(C)C)C(=O)NCC)C[C@@H]2c3cccc4[nH]cc(c34)C[C@H]21 [Cabergoline]
Second: CC(=O)c1ccc2c(c1)N(CCCN(C)C)c1ccccc1S2 [Acetopromazine maleate]
The CC50 at 24 h of the first is 1.8-fold lower: 5.04 µM for the first, 9.14 µM for the second.

Going from `Cc1cc(C)nc(Nc2ccccc2)n1` [Pyrimethanil] to `Cc1cc(C2CC2)nc(Nc2ccccc2)n1` [Cyprodinil], the CC50 at 24 h falls from greater than 90 µM to 74.9 µM.

First: CN[C@@H]1[C@@H](O)[C@@H](O[C@@H]2[C@@H](O)[C@H](O[C@H]3OC(CN)=CC[C@H]3N)[C@@H](N)C[C@H]2N)OC[C@]1(C)O [Sisomicin sulfate]
Second: COc1cccc2c1C(=O)c1c(O)c3c(c(O)c1C2=O)C[C@@](O)(C(=O)CO)C[C@@H]3O[C@H]1C[C@H](N)[C@H](O[C@@H]2CCCCO2)[C@H](C)O1 [Pirarubicin]
The CC50 at 24 h of the first is higher: greater than 20 µM for the first, 1.64 µM for the second.

`CCCC(=O)OC` [Methyl butyrate] and `COC(=O)OC` [Dimethyl carbonate] cannot be ordered by CC50 at 24 h: greater than 90 µM for the first, greater than 90 µM for the second.

`CC(=O)/N=c1/sc(S(N)(=O)=O)nn1C` [Methazolamide] and `Nc1ccc(S(=O)(=O)O)cc1` [Sodium sulfanilate] cannot be ordered by CC50 at 24 h: greater than 20 µM for the first, greater than 90 µM for the second.

`CCCCN1C(=O)c2ccccc2C1=O` [2-Butyl-1H-isoindole-1,3(2H)-dione] and `O=C1c2ccccc2C(=O)N1CCl` [2-(Chloromethyl)-1H-isoindole-1,3(2H)-dione] cannot be ordered by CC50 at 24 h: greater than 90 µM for the first, greater than 90 µM for the second.

`CC(C)(C)C(=O)c1ccccc1` [tert-Butyl phenyl ketone] and `CC(=O)OC(C)(C)Cc1ccccc1` [Dimethylbenzylcarbinyl acetate] cannot be ordered by CC50 at 24 h: greater than 90 µM for the first, greater than 90 µM for the second.

`CCOC(=O)OCC` [Diethyl carbonate] and `CCCCCC(=O)CC` [3-Octanone] cannot be ordered by CC50 at 24 h: greater than 100 µM for the first, greater than 90 µM for the second.

`O=Cc1ccc(C(=O)O)cc1` [4-Carboxybenzaldehyde] and `O=Cc1ccccc1S(=O)(=O)O` [Sodium 2-formylbenzenesulfonate] cannot be ordered by CC50 at 24 h: greater than 90 µM for the first, greater than 90 µM for the second.

`N=C(N)NCc1cccc(I)c1` [3-Iodobenzylguanidine hemisulfate] and `COc1ccc(NC(C)=O)cc1N` [N-(3-Amino-4-methoxyphenyl)acetamide] cannot be ordered by CC50 at 24 h: greater than 50 µM for the first, greater than 90 µM for the second.

`COC(=O)CCCCCCCC(=O)OC` [Dimethyl nonanedioate] and `CCCCOC(=O)CCCCC(=O)OCCCC` [Dibutyl adipate] cannot be ordered by CC50 at 24 h: greater than 90 µM for the first, greater than 90 µM for the second.

`COc1c(Br)cc(Br)c(C)c1Br` [1,3,5-Tribromo-2-methoxy-4-methylbenzene] and `C=CCOc1c(Br)cc(Br)cc1Br` [1,3,5-Tribromo-2-(prop-2-en-1-yloxy)benzene] cannot be ordered by CC50 at 24 h: greater than 90 µM for the first, greater than 90 µM for the second.

Compared with `CN(C)CCCN1c2ccccc2CCc2ccc(Cl)cc21` [Clomipramine hydrochloride], `Clc1ccc2c(c1)C(c1ccccc1)=NCc1nncn1-2` [Estazolam] is higher in CC50 at 24 h: 7.67 µM for the first, greater than 50 µM for the second.

`O=C1C2CC3CC1CC(O)(C3)C2` [Idramantone] and `O=C(COc1ccc(Cl)cc1)OCCNC12CC3CC(CC(C3)C1)C2` [Adafenoxate] cannot be ordered by CC50 at 24 h: greater than 50 µM for the first, greater than 50 µM for the second.

`CC(CN=Cc1ccccc1O)N=Cc1ccccc1O` (stereo not shown) [N,N'-Disalicylidene-1,2-diaminopropane] and `O=C(Nc1ccccc1)c1ccccc1O` [Salicylanilide] cannot be ordered by CC50 at 24 h: greater than 90 µM for the first, greater than 90 µM for the second.

`Cc1cccc(O)c1C` [2,3-Dimethylphenol] and `COC(=O)c1ccccc1C` [Methyl 2-methylbenzoate] cannot be ordered by CC50 at 24 h: greater than 90 µM for the first, greater than 90 µM for the second.

`CC(C)C1CCC(O)CC1` (stereo not shown) [4-Isopropylcyclohexanol] and `CC(=O)O[C@@H]1C[C@H]2CC[C@]1(C)C2(C)C` [Isobornyl acetate] cannot be ordered by CC50 at 24 h: greater than 90 µM for the first, greater than 90 µM for the second.

Going from `COC(=O)c1ccccc1C(=O)c1ccc(OCCN2CCCCC2)cc1` [Pitofenone hydrochloride] to `CC(=O)Oc1ccc(C(=C2CCCCC2)c2ccc(OC(C)=O)cc2)cc1` [Cyclofenil], the CC50 at 24 h rises from 42.7 µM to greater than 50 µM.

`Cc1cc(C)cc(O)c1` [3,5-Dimethylphenol] and `Cc1ccc(C#N)cc1` [4-Methylbenzonitrile] cannot be ordered by CC50 at 24 h: greater than 90 µM for the first, greater than 90 µM for the second.

`Cc1nnc2n1-c1sc(CCC(=O)N3CCOCC3)cc1C(c1ccccc1Cl)=NC2` [Apafant] and `O=C1CN=C(c2ccccc2)c2cc([N+](=O)[O-])ccc2N1` [Nitrazepam] cannot be ordered by CC50 at 24 h: greater than 50 µM for the first, greater than 50 µM for the second.

Compared with `CCCCCCC1CCOC1=O` (stereo not drawn) [alpha-Hexyl-gamma-butyrolactone], `CCCCCCCCCCCCCCCC/C=C/C1CC(=O)OC1=O` (stereo not shown) [Dihydro-3-(octadecenyl)-2,5-furandione] is lower in CC50 at 24 h: greater than 90 µM for the first, 36 µM for the second.

`CCCOC(=O)NCCCN(C)C` [Propamocarb hydrochloride] and `CCCCCCCCC(CCCCCC)C(=O)O` (stereo not shown) [2-Hexyldecanoic acid] cannot be ordered by CC50 at 24 h: greater than 90 µM for the first, greater than 90 µM for the second.

`CN1CCCC1` [N-Methylpyrrolidine] and `CCCCN1CCCC[C@H]1C(=O)Nc1c(C)cccc1C` [Levobupivacaine hydrochloride] cannot be ordered by CC50 at 24 h: greater than 90 µM for the first, greater than 50 µM for the second.

`C=CC(=O)OCCOCC(CC)(COCCOC(=O)C=C)COCCOC(=O)C=C` [Trimethylolpropane ethoxylate triacrylate] and `C=CC(=O)OCCCCOC(=O)C=C` [1,4-Butanediol diacrylate] are within 1.5-fold of each other in CC50 at 24 h: 23.1 µM for the first, 17.5 µM for the second.

First: CCc1nn(C2CCCCC2)c2cc(C3(C#N)CCC(C(=O)O)CC3)ccc12 (stereo not shown) [CP-401387]
Second: C=C1C[C@]23C[C@@]1(O)CC[C@H]2[C@@]12C=C[C@H](O)[C@@](C)(C(=O)O1)[C@H]2[C@@H]3C(=O)O [Gibberellic acid]
The CC50 at 24 h of the first is lower: 49.9 µM for the first, greater than 90 µM for the second.

First: Cc1ccc(NC(=O)c2ccc(CN3CCN(C)CC3)cc2)cc1Nc1nccc(-c2cccnc2)n1 [Imatinib mesylate]
Second: O=C(Nc1ccccc1)Nc1ccnc(Cl)c1 [Forchlorfenuron]
The CC50 at 24 h of the first is 3.5-fold lower: 18.5 µM for the first, 64.7 µM for the second.

`CN(C)c1ccc(O)c2c1C[C@H]1C[C@H]3[C@H](N(C)C)C(O)=C(C(N)=O)C(=O)[C@@]3(O)C(O)=C1C2=O` [Minocycline hydrochloride] and `O=C(O)C1=C(CSc2nnnn2CS(=O)(=O)O)CS[C@@H]2[C@H](NC(=O)[C@H](O)c3ccccc3)C(=O)N12` [Cefonicid sodium] cannot be ordered by CC50 at 24 h: greater than 90 µM for the first, greater than 50 µM for the second.

`CCCCCCCCCCCCCCCCCl` [1-Chlorohexadecane] and `CCCC(CC)c1ccccc1` (stereo not shown) [3-Phenylhexane] cannot be ordered by CC50 at 24 h: greater than 20 µM for the first, greater than 90 µM for the second.

`N#C/C(=C1/SCC(c2ccccc2Cl)S1)n1ccnc1` (stereo not shown) [Lanoconazole] and `C[C@H]1[C@@H](c2ccccc2)NC(=O)N1C` [(4R,5S)-(-)-1,5-Dimethyl-4-phenyl-2-imidazolidinone] cannot be ordered by CC50 at 24 h: greater than 50 µM for the first, greater than 90 µM for the second.

Going from `CC(C)(C)C(=O)C(Oc1ccc(Cl)cc1)n1cncn1` (stereo not shown) [Triadimefon] to `O=C(N[C@@H](Cc1ccccc1)[C@@H](O)C(=O)N1C[C@@H](O)[C@@H](O)C1)c1cc2cc(Cl)ccc2[nH]1` [Ingliforib], the CC50 at 24 h falls from greater than 90 µM to 78.2 µM.

`CCCC(C)C1(CC)C(=O)NC(=O)NC1=O` (stereo not shown) [Pentobarbital] and `CCC(C)c1cccc(C(C)CC)c1O` (stereo not shown) [2,6-Di(butan-2-yl)phenol] cannot be ordered by CC50 at 24 h: greater than 50 µM for the first, 72.2 µM for the second.

`CC1=CCCC(C)(C)C12CCC(C)O2` (stereo not shown) [Theaspirane] and `CC(=O)O[C@@H]1C[C@@H]2CC[C@@]1(C)C2(C)C` [Bornyl acetate] cannot be ordered by CC50 at 24 h: greater than 90 µM for the first, greater than 90 µM for the second.

`CC(C)NCC(O)c1ccc(N)c(C#N)c1` (stereo not shown) [Cimaterol] and `C=C(C)CNCC` [N-Ethyl-2-methylallylamine] cannot be ordered by CC50 at 24 h: greater than 50 µM for the first, greater than 90 µM for the second.

Compared with `N#CC1(O)CCCCC1` [Cyclohexanone cyanohydrin], `CO[C@H]1C[C@H](O[C@@H]2/C(C)=C/C[C@@H]3C[C@@H](C[C@]4(CC[C@H](C)[C@@H](C5CCCCC5)O4)O3)OC(=O)[C@@H]3C=C(C)/C(=N/O)[C@H]4OC/C(=C\C=C\[C@@H]2C)[C@]43O)O[C@@H](C)[C@@H]1O` [Selamectin] is lower in CC50 at 24 h: greater than 90 µM for the first, 33.2 µM for the second.

`OC[C@H]1O[C@@H](n2cnc3c2NC=NC[C@H]3O)C[C@@H]1O` [Pentostatin] and `CC(=O)N[C@@H]1[C@@H](O)[C@H](O)[C@@H](CO)O[C@H]1O` [N-Acetylglucosamine] cannot be ordered by CC50 at 24 h: greater than 50 µM for the first, greater than 50 µM for the second.

For `CN(C)N=Nc1ccccc1` [1-Phenyl-3,3-dimethyltriazene], the CC50 at 24 h was greater than 90 µM.

Same assay, conditions: rat, gh3-tre-luc cells, AC50 (uM) modified / 1000, Tox21_110001=Tox21_111131; viability, 1 nM T3 present, 24 h

Work on `C[C@]12C/C(=C/O)C(=O)C[C@@H]1CC[C@@H]1[C@@H]2CC[C@@]2(C)[C@H]1CC[C@]2(C)O` [Oxymetholone] yielded a CC50 at 24 h greater than 50 µM.

Same assay, conditions: rat, gh3-tre-luc cells, AC50 (uM) modified / 1000, Tox21_110001=Tox21_200071; viability, 1 nM T3 present, 24 h

`C[C@]12C/C(=C/O)C(=O)C[C@@H]1CC[C@@H]1[C@@H]2CC[C@@]2(C)[C@H]1CC[C@]2(C)O` [Oxymetholone] gave a CC50 at 24 h of 67.3 µM.

Same assay, conditions: rat, gh3-tre-luc cells, AC50 (uM) modified / 1000, Tox21_110001=Tox21_200757; viability, 1 nM T3 present, 24 h

`CN(C)c1ccc(N=Nc2ccccc2)cc1` [4-(Dimethylamino)azobenzene] showed a CC50 at 24 h greater than 90 µM.

Same assay, conditions: rat, gh3-tre-luc cells, AC50 (uM) modified / 1000, Tox21_110001=Tox21_201641; viability, 1 nM T3 present, 24 h

`COP(=O)(OC)OC(Br)C(Cl)(Cl)Br` (stereo not shown) [Naled] showed a CC50 at 24 h of 48.7 µM.

Same assay, conditions: rat, gh3-tre-luc cells, AC50 (uM) modified / 1000, Tox21_110001=Tox21_202584; viability, 1 nM T3 present, 24 h

Work on `Nc1ccc(-c2ccc(N)cc2)cc1` [Benzidine dihydrochloride] yielded a CC50 at 24 h greater than 50 µM.

Same assay, conditions: rat, gh3-tre-luc cells, AC50 (uM) modified / 1000, Tox21_110001=Tox21_300616; viability, 1 nM T3 present, 24 h

In the case of `O=C(O)C(F)(F)C(F)(F)C(F)(F)C(F)(F)C(F)(F)C(F)(F)F` [Perfluoroheptanoic acid], the CC50 at 24 h was greater than 90 µM.

Same assay, conditions: rat, gh3-tre-luc cells, AC50 (uM) modified / 1000, Tox21_110001=Tox21_300845; viability, 1 nM T3 present, 24 h

With `COP(=O)(OC)OC(Br)C(Cl)(Cl)Br` (stereo not shown) [Naled] the CC50 at 24 h was 49.1 µM.

Same assay, conditions: rat, gh3-tre-luc cells, AC50 (uM) modified / 1000, Tox21_110001=Tox21_301751; viability, 1 nM T3 present, 24 h

For `COP(=O)(OC)O/C(=C\Cl)c1cc(Cl)c(Cl)cc1Cl` [Z-Tetrachlorvinphos], the CC50 at 24 h was greater than 90 µM.

Same assay, conditions: rat, gh3-tre-luc cells, AC50 (uM) modified / 1000, Tox21_110001=Tox21_302624; viability, 1 nM T3 present, 24 h

In the case of `CC1CCC(=O)O1` (stereo not shown) [4-Pentanolide], the CC50 at 24 h was greater than 90 µM.
